US7001983B1, “Antipathogenic synthetic peptides and compositions comprising them” (priority 1997, dated 2006)
≈ marks a conversion by molar mass, not a printed value. Numbered stars: 1 amine (or outer) side, 2 acyl side, 3 side chain; on linkers, the order of the positions; unused ones are H or OH. Square brackets hold non-standard residues; d marks the D form. Peptide text beside a SMILES is read from it. Ethylenediamine = C(CN[*:2])N[*:1]

Tests used:
[1] = tested on: Micrococcus Iuteus ATCC 9341; assay: Antibacterial activity (MIC), growth inhibition in LB medium; assay type: cell-based, Micrococcus luteus; settings: 100% inhibition of growth after 18–20 h
Method: (§1) (viii) Antibacterial activity of the peptides. The antibacterial activity of the diastereomers was examined in sterile 96-well plates (Nunc F96 microtiter plates) in a final volume of 100 μL as follows: Aliquots (50 μl) of a suspension containing bacteria at a concentration of 10^6 Colony-Forming Units (CFU)/ml LB (Lauria broth) medium were added to 50 μL of water or 66% pooled normal human serum in PBS, containing the peptide in 2-fold serial dilutions. Growth inhibition was determined by measuring the absorbance at 492 nm with a Microplate autoreader E1309 (Bio-tek Instruments), following incubation for 18–20 h at 37° C. […] The bacteria used were: Escherichia coli D21, Pseudomonas aeruginosa ATCC 27853, Acinetobacter calcoaceticus Ac11, Salmonella typhimurium LT2, Bacillus megaterium Bm11, Micrococcus Iuteus ATCC 9341, Bacillus subtilis ATCC 6051.

[2] = tested on: Pseudomonas aeruginosa ATCC 27853; settings: 100% inhibition of growth after 18–20 h
Method: (viii) Antibacterial activity of the peptides.
Antibacterial activity of the mixtures was determined as described in Experimental procedures, section (xii).

[3] = CD spectroscopy, α-helix content; assay type: physicochemical; settings: CD in 40% TFE
Method: (vii) CD Spectroscopy. The CD spectra of the peptides were measured with a Jasco J-500A spectropolarimeter after calibrating the instrument with (+)-10-camphorsulfonic acid. The spectra were scanned at 23° C. in a capped, quartz optical cell with a 0.5 mm path length. Spectra were obtained at wavelengths of 250 to 190 nm. Eight scans were taken for each peptide at a scan rate of 20 nm/min. […] Fractional helicities (Greenfield and Fasman, 1969; Wu et al., 1981) were calculated as follows: [formula] where [θ]222 is the experimentally-observed mean residue ellipticity at 222 nm, and the values for [θ]^0222 and [θ]^100222, which correspond to 0% and 100% helix content at 222 nm, are estimated to be 2000 and 32000 deg·cm^2/dmole,
1.2 Determination of the secondary structure of the peptides. The secondary structures of the peptides 1, 8, 12, 14, were evaluated from their CD spectra in 40% TFE, a solvent that strongly promotes an α-helical structure, as described in Experimental Procedures, section (vii), and in PBS (35 mM phosphate buffer/0.15 M NaCl, pH 7.0).

[4] = Membrane permeation, diffusion potential assay; settings: dissipation of diffusion potential
Method: (xi) Membrane permeation induced by the peptides. Membrane permeation was assessed utilizing the diffusion potential assay (Loew et al., 1983; Sims et al., 1974) as previously described (Shai et al., 1991). In a typical experiment, in a glass tube, 4 μl of a liposomes suspension (final phospholipids concentration of 33 μM), in a K^+ containing buffer (50 mM K2SO4, 25 mM HEPES-SO4^−2, pH 6.8), was diluted in 1 ml of an isotonic K^+ free buffer (50 mM Na2SO4, 25 mM HEPES-SO4^−2, pH 6.8), and the fluorescent, potential-sensitive dye diS-C2-5 was then added. Valinomycin (1 μl of 10^−7 M) was added to the suspension in order to slowly create a negative diffusion potential inside the vesicles, which led to a quenching of the dye's fluorescence. Once the fluorescence had stabilized, which took 3–10 minutes, peptides were added. The subsequent dissipation of the diffusion potential, as reflected by an increase in fluorescence, was monitored on a Perkin Elmer LS-50B spectrofluorometer, with the excitation set at 620 nm, the emission at 670 nm, and the gain adjusted to 100%. The percentage of fluorescence recovery, Ft, was defined as: Ft=(It−I0/If−I0)×100 where I0=the initial fluorescence, If=the total fluorescence observed before the addition of valinomycin, and It=the fluorescence observed after adding the peptide at time t.
2.5.1 Membrane permeability induced by the peptides. […]

[5] = phosphatidylglycerol/phosphatidylcholine; Beschiaschvili and Seelig, 1990; cited from earlier work
[6] = tested on: human red blood cells (hRBC); settings: Oren and Shai, 1996; cited from earlier work
[7] = tested on: human red blood cells (hRBC); assay: Hemolysis of human red blood cells; assay type: cell-based; settings: for % hemolysis at 50 μM peptide: hRBC, 30 min at 37° C.
Outline: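 Washed fresh erythrocytes at 5% v/v final in PBS pH 7.3 exposed to peptide 30 min at 37° C with agitation. Hemoglobin release read as supernatant absorbance at 540 nm after centrifugation, scaled between PBS (0%) and 1% Triton (100%).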

[8] = tested on: Leishmania mexicana NR strain promastigotes; assay: Anti-Leishmania activity, counting living promastigotes; assay type: cell-based; settings: 100% death after 24 h of incubation
Method: The melittin-derived diastereomer peptide 20 (see Example 2 above) and the Leu/Lys diastereomer peptide 23 (see Example 3 above) were tested against Leishmania. Promastigotes of the Leishmania mexicana NR strain to be assayed were cultured at 27° C. in RPMI 1640 medium supplemented with 10% fetal bovine serum. Parasite were harvested by centrifugation at 1200×g for 10 min at 4° C. and washed twice with PBS (50 mM sodium phosphate, 150 mM NaCl, pH 7). The washed promastigotes were counted in a hemocytometer and adjusted to 1×10^6 parasites/ml. Aliquotes of this suspension were assayed in a final volume of 100 μl by counting living (motile) cells after 24 h of incubation at 26° C. in the absence or presence of various concentrations of the diastereomers.

Sendai virus (Z strain) = settings: no release of hemoglobin after incubation 37° C. 60 min
Method: Sendai virus (Z strain) was grown in the allantoic sac of 10–11 day old embryonated chicken eggs, harvested 48 h after injection and purified. The virus was resuspended in buffer composed of 160 mM NaCl, 20 mM tricine, pH 7.4, and stored at −70° C. Virus haemagglutinating activity was measured in haemagglutinating units (HAU). One microliter contained ˜60000 HAU. Fresh human blood was obtained from a blood bank and stored for up to 1 month at 4° C. Prior to use, erythrocytes were washed twice with PBS pH 7.2, and diluted to the desired concentration (% v/v) with the same buffer. Virions, erythrocytes and peptides were mixed in different orders of addition and various amounts. The final incubation was always at 37° C. for 60 min. followed by centrifugation at 5700 g for 10 min to remove intact cells. In all cases duplicate samples were used and two aliquots were taken from the supernatant of each sample to two wells of a 96-well plate. The amount of hemoglobin release was monitored by measuring the absorbance of the wells with the ELISA, plate reader at 540 nm. Antiviral activity was expressed as the minimal inhibitory concentration (MIC), the concentration at which no release of hemoglobin was observed after incubation.

Escherichia coli D21 = assay type: cell-based; settings: 100% inhibition of growth after 18–20 h
[9] = tested on: Acinetobacter calcoaceticus Ac11; assay type: cell-based; settings: 100% inhibition of growth after 18–20 h
Bacillus megaterium Bm11 = assay type: cell-based; settings: 100% inhibition of growth after 18–20 h
[10] = tested on: Salmonella typhimurium LT2; assay: Antibacterial activity (MIC), growth inhibition in LB medium; assay type: cell-based; settings: 100% inhibition of growth after 18–20 h
Method: as §1

[11] = tested on: Bacillus subtilis ATCC 6051; assay type: cell-based; settings: 100% inhibition of growth after 18–20 h

Compound | Minimal Inhibitory Concentration M. luteus (ATCC 9341) [1] [µM] | Minimal Inhibitory Concentration P. aeruginosa (ATCC 27853) [2] [µM] | MIC Leishmania mexicana [8] [µM] | Minimal Inhibitory Concentration E. coli (D21) (Escherichia coli D21) [µM] | Minimal Inhibitory Concentration A. calcoaceticus (Ac11) [9] [µM] | Minimal Inhibitory Concentration B. megaterium (Bm11) (Bacillus megaterium Bm11) [µM] | Minimal Inhibitory Concentration S. typhimurium (LT2) [10] [µM] | % hemolysis at 50 μM peptide [7] [%] | also measured
CC[C@H](C)[C@H](NC(=O)CN)C(=O)NCC(=O)N[C@@H](C)C(=O)N[C@H](C(=O)N[C@@H](CC(C)C)C(=O)N[C@@H](CCCCN)C(=O)N[C@H](C(=O)N[C@@H](CC(C)C)C(=O)N[C@H](C(=O)N[C@H](C(=O)NCC(=O)N[C@@H](CC(C)C)C(=O)N1CCC[C@H]1C(=O)N[C@@H](C)C(=O)N[C@@H](CC(C)C)C(=O)N[C@H](C(=O)N[C@@H](CO)C(=O)N[C@@H](Cc1c[nH]c2ccccc12)C(=O)N[C@H](C(=O)N[C@@H](CCCCN)C(=O)N[C@@H](CCCNC(=N)N)C(=O)N[C@@H](CCCCN)C(=O)N[C@@H](CCCNC(=N)N)C(=O)N[C@@H](CCC(N)=O)C(=O)N[C@@H](CCC(N)=O)C(N)=O)[C@@H](C)CC)[C@@H](C)CC)[C@@H](C)O)[C@@H](C)O)C(C)C)C(C)C [Melittin] | 0.4 | 25 |  |  |  |  |  |  | α-helix content [3]: 73%; membrane permeating activity with PC (zwitterionic) vesicles [4]: highly active; partition coefficient reported for melittin binding [5]: 4.5±0.6×10^4 M^−1
Pardaxin |  |  |  |  |  |  |  |  | hemolytic activity towards human erythrocytes relative to melittin (fold less) [6]: 40–100 fold
CC(C)C[C@H](NC(=O)[C@H](CCCCN)NC(=O)[C@@H](CC(C)C)NC(=O)[C@@H](CC(C)C)NC(=O)[C@H](CC(C)C)NC(=O)[C@@H](N)CCCCN)C(=O)N[C@@H](CC(C)C)C(=O)N[C@H](CC(C)C)C(=O)N[C@@H](CCCCN)C(=O)N[C@H](CC(C)C)C(=O)N[C@@H](CC(C)C)C(=O)N[C@@H](CCCCN)C(N)=O [Peptide 23, [D]-L^3,4,8,10-K4L8] (H-KL[dL][dL]KLL[dL]K[dL]LK-NH2) |  |  | 17 (≈ 24.4 µg/mL) |  |  |  |  |  | hemolytic activity in comparison to melittin (fold less) [7]: > 100 fold; % hemolysis at 100 μM ([7]; red cells of human, 100): 0%; MIC Sendai virus (Sendai virus (Z strain)): 80 µM (≈ 115 µg/mL)
CC[C@H](C)[C@H](NC(=O)[C@H](CCCCN)NC(=O)[C@H]1CCCN1C(=O)[C@@H](NC(=O)[C@H](CC(C)C)NC(=O)[C@H](C)NC(=O)[C@H](Cc1ccccc1)NC(=O)[C@H](Cc1ccccc1)NC(=O)CN)[C@@H](C)CC)C(=O)N[C@H](C(=O)N[C@@H](CO)C(=O)NCCN)[C@@H](C)CC [Peptide 7, [D]P^7-[1-11]-TApar] (H-GFFALI[dP]KIIS-Ethylenediamine; N-terminus assumed) |  | >120 |  | >120 | >120 | 30 | >120 | 0 | 
CC[C@@H](C)[C@@H](NC(=O)[C@H](CC(C)C)NC(=O)[C@H](C)NC(=O)[C@@H]1CCCN1C(=O)[C@H](CC(C)C)NC(=O)CNC(=O)[C@@H](NC(=O)[C@@H](NC(=O)[C@H](CC(C)C)NC(=O)[C@H](NC(=O)[C@H](CCCCN)NC(=O)[C@H](CC(C)C)NC(=O)[C@H](NC(=O)[C@H](C)NC(=O)CNC(=O)[C@@H](NC(=O)CN)[C@@H](C)CC)C(C)C)C(C)C)[C@@H](C)O)[C@@H](C)O)C(=O)N[C@@H](CO)C(=O)N[C@@H](Cc1c[nH]c2ccccc12)C(=O)N[C@H](C(=O)N[C@H](CCCCN)C(=O)N[C@@H](CCCNC(=N)N)C(=O)NCCN)[C@@H](C)CC [Peptide 20, [D]-V^5V^8I^17K^21-[1-22]-TAmel] | 29 |  | 32 (≈ 75.2 µg/mL) | 8 | 7 | 0.8 |  | 0 | 
CC[C@H](C)[C@H](NC(=O)[C@H](CCCCN)NC(=O)[C@@H]1CCCN1C(=O)[C@@H](NC(=O)[C@H](CC(C)C)NC(=O)[C@H](C)NC(=O)[C@H](Cc1ccccc1)NC(=O)[C@H](Cc1ccccc1)NC(=O)CN)[C@@H](C)CC)C(=O)N[C@H](C(=O)N[C@@H](CO)C(=O)N[C@@H](CO)C(=O)N1CCC[C@H]1C(=O)N[C@@H](CC(C)C)C(=O)N[C@@H](Cc1ccccc1)C(=O)N[C@@H](CCCCN)C(=O)N[C@H](C(=O)N[C@@H](CC(C)C)C(=O)N[C@@H](CC(C)C)C(=O)N[C@@H](CO)C(=O)N[C@@H](C)C(=O)N[C@H](C(=O)NCC(=O)N[C@@H](CO)C(=O)N[C@@H](C)C(=O)N[C@@H](CC(C)C)C(=O)N[C@@H](CO)C(=O)N[C@@H](CO)C(=O)N[C@@H](CO)C(=O)NCC(=O)NCC(=O)N[C@@H](CCC(N)=O)C(=O)N[C@@H](CCC(=O)NCCN)C(=O)NCCN)C(C)C)[C@@H](C)O)[C@@H](C)CC [Peptide 8, TApar] | 5 | 8 |  | 3 | 3 | 0.8 | 15 | 100 | Minimal Inhibitory Concentration B. subtilis (ATCC 6051) [11]: 1.5 µM
